Experiments:
Format in all cases: in vivo
[1] = tested on: velvetleaf (Abutilon theophrasti MEDIC.); assay: Test Example 2: soil application on the day after sowing, velvetleaf; details: Abutilon theophrasti, read-out: Growth inhibition rate (%) Velvetleaf; for inhibition at 250 g/ha: 250 g/ha active ingredient, observed 19th to 28th day after application
In short: (§1)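 Pre-emergence soil spray, day after sowing: compound formulated as WP or EC, diluted with water equivalent to 500 L/ha, applied at prescribed active-ingredient rates to upland soil pots (1/170,000 ha). Visual inhibition rating 0–100% on days 19–28.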

[2] = tested on: barnyardgrass (Echinochloa crus-galli L.); assay: Test Example 1: foliar treatment, upland pot test, barnyardgrass; details: Echinochloa crus-galli, read-out: Growth inhibition rate (%) Barnyardgrass; for inhibition at 31 g/ha: 31 g/ha active ingredient, observed 17th to 25th day after application; for inhibition at 63 g/ha: 63 g/ha active ingredient, observed 21st day after application
[3] = tested on: wheat (Triticum spp.); assay: Test Example 1: foliar treatment, upland pot test, wheat; details: Triticum, read-out: Growth inhibition rate (%) Wheat; for inhibition at 31 g/ha: 31 g/ha active ingredient, observed 17th to 25th day after application; for inhibition at 63 g/ha: 63 g/ha active ingredient, observed 21st day after application
In short: (§2)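 Upland soil pots, sown; foliar spray at pigweed cotyledon–2.0 leaf, velvetleaf 0.1–1.5 leaf, rice 1.0–3.0 leaf, wheat 1.7–3.4 leaf. WP/EC formulations, prescribed a.i. rate, 500 L/ha spray volume + 0.1 vol % spreader. Visual % inhibition, d17–25.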

[4] = tested on: rice (Oryza sativa L.); assay: Test Example 1: foliar treatment, upland pot test, rice; details: Oryza sativa, read-out: Growth inhibition rate (%) Rice; for inhibition at 31 g/ha: 31 g/ha active ingredient, observed 17th to 25th day after application; for inhibition at 63 g/ha: 63 g/ha active ingredient, observed 21st day after application
In short: as §2

[5] = tested on: rice (Oryza sativa L.); assay: Test Example 2: soil application on the day after sowing, rice; details: Oryza sativa, read-out: Growth inhibition rate (%) Rice; for inhibition at 250 g/ha: 250 g/ha active ingredient, observed 19th to 28th day after application
In short: as §1

[6] = tested on: green foxtail (Setaria viridis L.); assay: Test Example 2: soil application on the day after sowing, green foxtail; details: Setaria viridis, read-out: Growth inhibition rate (%) Green foxtail; for inhibition at 250 g/ha: 250 g/ha active ingredient, observed 19th to 28th day after application
In short: as §1

[7] = tested on: barnyardgrass (Echinochloa crus-galli L.); assay: Test Example 2: soil application on the day after sowing, barnyardgrass; details: Echinochloa crus-galli, read-out: Growth inhibition rate (%) Barnyardgrass; for inhibition at 250 g/ha: 250 g/ha active ingredient, observed 19th to 28th day after application
In short: as §1

[8] = tested on: prickly sida (Sida spinosa L.); assay: Test Example 1: foliar treatment, upland pot test, prickly sida; details: Sida spinosa, read-out: Growth inhibition rate (%) Prickly sida; for inhibition at 31 g/ha: 31 g/ha active ingredient, observed 17th to 25th day after application; for inhibition at 63 g/ha: 63 g/ha active ingredient, observed 21st day after application
[9] = tested on: corn (Zea mays L.); assay: Test Example 1: foliar treatment, upland pot test, corn; details: Zea mays, read-out: Growth inhibition rate (%) Corn; for inhibition at 31 g/ha: 31 g/ha active ingredient, observed 17th to 25th day after application; for inhibition at 63 g/ha: 63 g/ha active ingredient, observed 21st day after application
[10] = tested on: prickly sida (Sida spinosa L.); assay: Test Example 2: soil application on the day after sowing, prickly sida; details: Sida spinosa, read-out: Growth inhibition rate (%) Prickly sida; for inhibition at 250 g/ha: 250 g/ha active ingredient, observed 19th to 28th day after application
In short: as §1

[11] = tested on: green foxtail (Setaria viridis L.); assay: Test Example 1: foliar treatment, upland pot test, green foxtail; details: Setaria viridis, read-out: Growth inhibition rate (%) Green foxtail; for inhibition at 31 g/ha: 31 g/ha active ingredient, observed 17th to 25th day after application; for inhibition at 63 g/ha: 63 g/ha active ingredient, observed 21st day after application
[12] = tested on: crabgrass (Digitaria sanquinalis L.); assay: Test Example 2: soil application on the day after sowing, crabgrass; details: Digitaria, read-out: Growth inhibition rate (%) Crabgrass; for inhibition at 250 g/ha: 250 g/ha active ingredient, observed 19th to 28th day after application
In short: as §1

[13] = tested on: soybean (Glycine max Merr.); assay: Test Example 2: soil application on the day after sowing, soybean; details: Glycine max, read-out: Growth inhibition rate (%) Soybean; for inhibition at 250 g/ha: 250 g/ha active ingredient, observed 19th to 28th day after application
In short: as §1

[14] = tested on: crabgrass (Digitaria sanguinalis L.); assay: Test Example 1: foliar treatment, upland pot test, crabgrass; details: Digitaria sanguinalis, read-out: Growth inhibition rate (%) Crabgrass; for inhibition at 31 g/ha: 31 g/ha active ingredient, observed 17th to 25th day after application; for inhibition at 63 g/ha: 63 g/ha active ingredient, observed 21st day after application
[15] = tested on: redroot pigweed (Amaranthus retroflexus L.); assay: Test Example 1: foliar treatment, upland pot test, redroot pigweed; details: Amaranthus retroflexus, read-out: Growth inhibition rate (%) Redroot pigweed; for inhibition at 31 g/ha: 31 g/ha active ingredient, observed 17th to 25th day after application; for inhibition at 63 g/ha: 63 g/ha active ingredient, observed 21st day after application
In short: as §2

[16] = tested on: velvetleaf (Abutilon theophrasti MEDIC.); assay: Test Example 1: foliar treatment, upland pot test, velvetleaf; details: Abutilon theophrasti, read-out: Growth inhibition rate (%) Velvetleaf; for inhibition at 31 g/ha: 31 g/ha active ingredient, observed 17th to 25th day after application; for inhibition at 63 g/ha: 63 g/ha active ingredient, observed 21st day after application
In short: as §2

[17] = tested on: wheat (Triticum spp.); assay: Test Example 2: soil application on the day after sowing, wheat; details: Triticum, read-out: Growth inhibition rate (%) Wheat; for inhibition at 250 g/ha: 250 g/ha active ingredient, observed 19th to 28th day after application
Text: Upland field soil was put into a 1/170,000 hectare pot, and seeds of various plants barnyardgrass (Echinochloa crus-galli L.), crabgrass (Digitaria sanquinalis L.), green foxtail (Setaria viridis L.), redroot pigweed (Amaranthus retroflexus L.), prickly sida (Sida spinosa L.), velvetleaf (Abutilon theophrasti MEDIC.), rice (Oryza sativa L.), wheat (Triticum spp.), corn (Zea mays L.) and soybean (Glycine max Merr.)) were sown. On the day after sowing, wettable powders or emulsifiable concentrates of the compounds of the above formula (I) prepared in accordance with a conventional preparation method, were weighed so that the active ingredients became the prescribed amounts, and diluted with water in an amount corresponding to 500 liter per 1 hectare, followed by soil application with a small sprayer.
On the 19th to 28th day after the application, the state of growth of the respective plants was visually observed, and the herbicidal effect was evaluated by a growth inhibition rate (%) of from 0 (equivalent to the non-treated area) to 100% (complete kill).

[18] = tested on: redroot pigweed (Amaranthus retroflexus L.); assay: Test Example 2: soil application on the day after sowing, redroot pigweed; details: Amaranthus retroflexus, read-out: Growth inhibition rate (%) Redroot pigweed; for inhibition at 250 g/ha: 250 g/ha active ingredient, observed 19th to 28th day after application
In short: as §1

[19] = tested on: soybean (Glycine max Merr.); assay: Test Example 1: foliar treatment, upland pot test, soybean; details: Glycine max, read-out: Growth inhibition rate (%) Soybean; for inhibition at 31 g/ha: 31 g/ha active ingredient, observed 17th to 25th day after application; for inhibition at 63 g/ha: 63 g/ha active ingredient, observed 21st day after application
[20] = tested on: corn (Zea mays L.); assay: Test Example 2: soil application on the day after sowing, corn; details: Zea mays, read-out: Growth inhibition rate (%) Corn; for inhibition at 250 g/ha: 250 g/ha active ingredient, observed 19th to 28th day after application
In short: as §1

[21] = 500 g/ha active ingredient, observed 20th day after application

## COC(COc1c(S(C)(=O)=O)ccc(C(=O)c2cnn(C)c2O)c1C)OC [Compound No. 1, 5-hydroxy-1-methylpyrazol-4-yl 3-(2,2-dimethoxyethoxy)-2-methyl-4-(methylsulfonyl)phenyl ketone]
[1]
  inhibition at 250 g/ha: 95%
[2]
  inhibition at 31 g/ha: 98%
[3]
  inhibition at 31 g/ha: 30%
[4]
  inhibition at 31 g/ha: 80%
[5]
  inhibition at 250 g/ha: 90%
[6]
  inhibition at 250 g/ha: 100%
[7]
  inhibition at 250 g/ha: 100%
[8]
  inhibition at 31 g/ha: 80%
[9]
  inhibition at 31 g/ha: 10%
[10]
  inhibition at 250 g/ha: 30%
[11]
  inhibition at 31 g/ha: 98%
[12]
  inhibition at 250 g/ha: 90%
[13]
  inhibition at 250 g/ha: 40%
[14]
  inhibition at 31 g/ha: 90%
[15]
  inhibition at 31 g/ha: 98%
[16]
  inhibition at 31 g/ha: 100%
[17]
  inhibition at 250 g/ha: 40%
[18]
  inhibition at 250 g/ha: 100%
[19]
  inhibition at 31 g/ha: 98%
[20]
  inhibition at 250 g/ha: 0%

## Cn1ncc(C(=O)c2ccc(S(C)(=O)=O)c(Cl)c2Cl)c1O [compound 238]
[1]
  inhibition at 250 g/ha: 0%
[2]
  inhibition at 31 g/ha: 0%
[3]
  inhibition at 31 g/ha: 0%
[4]
  inhibition at 31 g/ha: 0%
[5]
  inhibition at 250 g/ha: 0%
[6]
  inhibition at 250 g/ha: 20%
[7]
  inhibition at 250 g/ha: 0%
[8]
  inhibition at 31 g/ha: 0%
[9]
  inhibition at 31 g/ha: 0%
[10]
  inhibition at 250 g/ha: 0%
[11]
  inhibition at 31 g/ha: 0%
[12]
  inhibition at 250 g/ha: 20%
[13]
  inhibition at 250 g/ha: 0%
[14]
  inhibition at 31 g/ha: 0%
[15]
  inhibition at 31 g/ha: 50%
[16]
  inhibition at 31 g/ha: 30%
[17]
  inhibition at 250 g/ha: 0%
[18]
  inhibition at 250 g/ha: 30%
[19]
  inhibition at 31 g/ha: 50%
[20]
  inhibition at 250 g/ha: 0%

## CCn1ncc(C(=O)c2ccc(S(C)(=O)=O)c(OCCC3OCCO3)c2Cl)c1O [compound 244]
[1]
  inhibition at 250 g/ha: 80%
[2]
  inhibition at 63 g/ha: 50%
[3]
  inhibition at 63 g/ha: 0%
[4]
  inhibition at 63 g/ha: 10%
[5]
  inhibition at 250 g/ha: 80%
[6]
  inhibition at 250 g/ha: 70%
[7]
  inhibition at 250 g/ha: 100%
[8]
  inhibition at 63 g/ha: 50%
[9]
  inhibition at 63 g/ha: 0%
[10]
  inhibition at 250 g/ha: 60%
[11]
  inhibition at 63 g/ha: 40%
[12]
  inhibition at 250 g/ha: 90%
[13]
  inhibition at 250 g/ha: 0%
[14]
  inhibition at 63 g/ha: 20%
[15]
  inhibition at 63 g/ha: 80%
[16]
  inhibition at 63 g/ha: 70%
[17]
  inhibition at 250 g/ha: 0%
[18]
  inhibition at 250 g/ha: 90%
[19]
  inhibition at 63 g/ha: 70%
[20]
  inhibition at 250 g/ha: 0%

## Cc1c(C(=O)c2cnn(C)c2O)ccc(S(C)(=O)=O)c1C#N [compound 171]
[1]
  inhibition at 250 g/ha: 40%
[2]
  inhibition at 31 g/ha: 80%
[3]
  inhibition at 31 g/ha: 0%
[4]
  inhibition at 31 g/ha: 40%
[5]
  inhibition at 250 g/ha: 10%
[6]
  inhibition at 250 g/ha: 40%
[7]
  inhibition at 250 g/ha: 70%
[8]
  inhibition at 31 g/ha: 70%
[9]
  inhibition at 31 g/ha: 0%
[10]
  inhibition at 250 g/ha: 50%
[11]
  inhibition at 31 g/ha: 70%
[12]
  inhibition at 250 g/ha: 80%
[13]
  inhibition at 250 g/ha: 10%
[14]
  inhibition at 31 g/ha: 60%
[15]
  inhibition at 31 g/ha: 80%
[16]
  inhibition at 31 g/ha: 75%
[17]
  inhibition at 250 g/ha: 0%
[18]
  inhibition at 250 g/ha: 100%
[19]
  inhibition at 31 g/ha: 70%
[20]
  inhibition at 250 g/ha: 0%

## Cn1ncc(C(=O)c2ccc(S(C)(=O)=O)c(S(C)(=O)=O)c2Cl)c1O [compound 247]
[1]; [21]
  inhibition at 500 g/ha: 100%
[2]
  inhibition at 63 g/ha: 90%
[3]
  inhibition at 63 g/ha: 0%
[4]
  inhibition at 63 g/ha: 20%
[5]; [21]
  inhibition at 500 g/ha: 98%
[6]; [21]
  inhibition at 500 g/ha: 100%
[7]; [21]
  inhibition at 500 g/ha: 100%
[8]
  inhibition at 63 g/ha: 90%
[9]
  inhibition at 63 g/ha: 0%
[10]; [21]
  inhibition at 500 g/ha: 75%
[11]
  inhibition at 63 g/ha: 50%
[12]; [21]
  inhibition at 500 g/ha: 100%
[13]; [21]
  inhibition at 500 g/ha: 50%
[14]
  inhibition at 63 g/ha: 30%
[15]
  inhibition at 63 g/ha: 100%
[16]
  inhibition at 63 g/ha: 80%
[17]; [21]
  inhibition at 500 g/ha: 10%
[18]; [21]
  inhibition at 500 g/ha: 100%
[19]
  inhibition at 63 g/ha: 100%
[20]; [21]
  inhibition at 500 g/ha: 0%
